Data published in patent US12617769B2, “Chemical compound as thyroid hormone beta receptor agonist and use thereof” (SUNSHINE LAKE PHARMA CO., LTD., priority 2019, dated 2026).

Assays:
TRβ = molecular target: T1, TRβ (Homo sapiens, UniProt P10828); test: In vitro binding activity, LanthaScreen TR-FRET Thyroid Receptor beta Coactivator Assay; details: TRβ-LBD
T1 construct: Then 5 μL of 4×TRα-LBD or TRP-LBD; purchased Invitrogen PV4686
T1 sequence (P10828 217-461 limits assumed): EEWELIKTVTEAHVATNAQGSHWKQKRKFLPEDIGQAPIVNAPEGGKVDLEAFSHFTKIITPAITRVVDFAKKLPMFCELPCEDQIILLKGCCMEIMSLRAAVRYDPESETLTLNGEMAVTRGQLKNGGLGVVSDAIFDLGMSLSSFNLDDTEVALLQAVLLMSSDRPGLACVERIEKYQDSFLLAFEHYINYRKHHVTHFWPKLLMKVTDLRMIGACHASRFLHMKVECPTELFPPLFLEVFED
Method: (§1) 2. Detection of TRα or TRβ Binding Activity In Vitro of the Compound of the Present Invention
(§2) • LanthaScreen TR-FRET Thyroid Receptor beta Coactivator Assay kit was purchased from Invitrogen, Cat. No. PV4686; • LanthaScreen TR-FRET Thyroid Receptor alfa Coactivator Assay kit was purchased from Invitrogen, Cat. No. PV4687. Test Method:
(§3) This method was tested using LanthaScreen TR-FRET Thyroid Receptor beta/alfa Coactivator Assay kit. The test compound was dissolved in DMSO and diluted three-fold to obtain a total of 10 concentrations, then the compounds were diluted into solutions containing 2% DMSO with TR-FRET Coregulator Buffer C in the kit. 10 μL of the compounds containing 2% DMSO were taken to a 384-well plate. Then 5 μL of 4×TRα-LBD or TRP-LBD and 5 μL of a mixture containing 0.4 μM fluorescein-SRC2-2 and 8 nM Tb anti-GST antibody were added to each well. After mixing well, the compounds were incubated at room temperature in the dark for 1 h. After 1 h, the fluorescence value (RFU) was read at 520 nm and 495 nm using PHERAstar FSX microplate reader from BMG LABTECH. The emission signal at 520 nm was divided by the emission signal at 495 nm to calculate the TR-FRET ratio.

TRα = molecular target: T2, TRα (Homo sapiens, UniProt P10827); test: In vitro binding activity, LanthaScreen TR-FRET Thyroid Receptor alfa Coactivator Assay; details: TRα-LBD
T2 construct: Then 5 μL of 4×TRα-LBD or TRP-LBD; purchased Invitrogen PV4687
Method: as §1, §2, §3

[1] = Pharmacokinetic determination in SD rats (plasma, LC/MS/MS); type: in vivo; details: SD rat; for pharmacokinetic properties (in words): intravenous injection or oral gavage, compared to control MGL3196; for AUC(0-t) / Cmax / Tmax / half-life: male, plasma
Excerpt: Test purpose: The following method is used to determine the pharmacokinetics of the compounds of the present invention.
Experimental reagents and test compounds: Propranolol (internal standard), methanol, ammonium acetate, K2EDTA (potassium ethylenediamine tetraacetate), formic acid, acetonitrile, MTBE (methyl tert-butyl ether), KolliphorHS15 (polyethylene glycol 12 hydroxystearate), DMSO (dimethyl sulfoxide) are commercially available; • SD rat: male, 180-220 g, 7-8 weeks old, purchased from Hunan Slake Experimental Animal Co., Ltd. Test Method: 1. Preparation of Test Compounds
Each test compound prepared was completely dissolved in a mixture of 5% DMSO+5% KolliphorHS 15+90% Saline according solubility property thereof.
(1) Preparation of the test compound stock solution: an appropriate amount of test compound was precisely weighed, dissolved in DMSO, diluted to 1 mg/mL with acetonitrile, and shaken well to obtain the test compound stock solution, which was stored at −20° C. for use.
(2) Preparation of internal standard solution: a certain amount of 1 mg/mL Propranolol stock solution was precisely drawn and diluted to 100 ng/mL with water.
The liquid-liquid extraction method was used to process the samples for chromatographic separation. On a triple quadrupole tandem mass spectrometer, quantitative analysis was performed using multiple reactive ion monitoring (MRM), and the concentration were calculated using instrument quantitative software.
30 μL of plasma sample was accurately drawn, and added with 250 μL of internal standard. The mixture was mixed well by vortexing. The mixture was extracted once with 1 mL of MTBE, centrifuged at 13,000 rpm, 4° C. for 2 min, then 800 μL of supernatant was sucked, and evaporated in a 96-well nitrogen blower. The residue was re-dissolved with 150 μL of methanol/water (v/v=50/50), mixed by vortexing, and injected. The injection volume was 8 μL.
An appropriate amount of compound stock solution was accurately drawn, and diluted with acetonitrile to obtain standard series solution. 20 μL of each of the above standard series solutions was accurately drawn, added with 180 μL of blank plasma, and mixed well by vortexing to prepare plasma samples equivalent to plasma concentrations of 3, 5, 10, 30, 100, 300, 1,000, 3,000, 5,000, and 10,000 ng/mL, which were all processed according to “pretreatment of plasma samples”. Two samples were analyzed for each concentration to establish a standard curve.
The content of the test compound in the plasma of rats after administration of different compounds was determined by LC/MS/MS method.
Pharmacokinetic parameters were calculated using a noncompartmental method by WinNonLin 6.1 software.

T2 sequence (P10827 163-410 isoform P10827-2 limits assumed, other chains not shown): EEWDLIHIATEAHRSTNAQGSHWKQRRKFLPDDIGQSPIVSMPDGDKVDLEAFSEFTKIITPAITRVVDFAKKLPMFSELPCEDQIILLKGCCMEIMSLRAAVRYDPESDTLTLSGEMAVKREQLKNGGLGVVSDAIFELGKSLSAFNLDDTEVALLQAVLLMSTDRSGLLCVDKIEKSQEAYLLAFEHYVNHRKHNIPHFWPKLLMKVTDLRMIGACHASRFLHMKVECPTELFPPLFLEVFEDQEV

Row | Compound | EC50 (TRβ) [nM] | EC50 (TRα) [nM] | pharmacokinetic properties (in words) [1] | AUC(0-t) ([1]; po, ig, 5 mg/kg) [ng·h/mL] | Cmax ([1]; po, ig, 5 mg/kg) [ng/mL] | Tmax ([1]; po, ig, 5 mg/kg) [h] | half-life ([1]; po, ig, 5 mg/kg) [h] | AUC(0-t) ([1]; iv, 1 mg/kg) [ng·h/mL] | Cmax ([1]; iv, 1 mg/kg) [ng/mL] | Tmax ([1]; iv, 1 mg/kg) [h] | half-life ([1]; iv, 1 mg/kg) [h]
1 | COC(=O)c1nn(-c2cc(Cl)c(Oc3ccc(=O)n(Cc4ccccc4)c3)c(Cl)c2)c(=O)[nH]c1=O [Example 16, Methyl 2-(4-((1-benzyl-6-oxo-1,6-dihydropyridin-3-yl)oxy)-3,5-dichlorophenyl)-3,5-dioxo-2,3,4,5-tetrahydro-1,2,4-triazine-6-carboxylate] | 360 | 16300 | excellent pharmacokinetic properties | 33600 | 12700 | 0.5 | 3.05 | 17400 | 17300 | 0.083 | 4
2 | O=c1cnn(-c2cc(Cl)c(Oc3ccc(=O)n(Cc4ccccc4)c3)c(Cl)c2)c(=O)[nH]1 [Example 29, 2-(4-((1-benzyl-6-oxo-1,6-dihydropyridin-3-yl)oxy)-3,5-dichlorophenyl)-1,2,4-triazine-3,5-dione] | 11 | 370 | excellent pharmacokinetic properties | 115000 | 20000 | 0.417 | 2.89 | 16900 | 8920 | 0.083 | 2.38
3 | O=c1cnn(-c2cc(Cl)c(Oc3ccc(=O)n(Cc4ccc(F)cc4)c3)c(Cl)c2)c(=O)[nH]1 [Example 36, 2-(3,5-dichloro-4-((1-(4-fluorobenzyl)-6-oxo-1,6-dihydropyridin-3-yl)oxy)phenyl)-1,2,4-triazine-3,5(2H,4H)-dione] | < 4.6 | 92 | – | – | – | – | – | – | – | – | –
4 | Cc1cc(Oc2c(Cl)cc(-n3nc(C#N)c(=O)[nH]c3=O)cc2Cl)cn(Cc2ccccc2)c1=O [Example 37, 2-(4-((1-benzyl-5-methyl-6-oxo-1,6-dihydropyridin-3-yl)oxy)-3,5-dichlorophenyl)-3,5-dioxo-2,3,4,5-tetrahydro-1,2,4-triazine-6-carbonitrile] | 245 | > 100000 | – | – | – | – | – | – | – | – | –
5 | N#Cc1nn(-c2cc(Cl)c(Oc3cc(Cl)c(=O)n(Cc4ccccc4)c3)c(Cl)c2)c(=O)[nH]c1=O [Example 38, 2-(4-((1-benzyl-5-chloro-6-oxo-1,6-dihydropyridin-3-yl)oxy)-3,5-dichlorophenyl)-3,5-dioxo-2,3,4,5-tetrahydro-1,2,4-triazine-6-carbonitrile] | 382 | > 33300 | – | – | – | – | – | – | – | – | –
6 | CC(C)c1cc(Oc2c(Cl)cc(-n3nc(C#N)c(=O)[nH]c3=O)cc2Cl)n[nH]c1=O [MGL3196, reference compound] | – | – | – | 20700 | 2610 | 2 | 4.26 | 8840 | 5990 | 0.083 | 2.74
